Test results reported in US8129527B2, “Analogs of dehydrophenylahistins and their therapeutic use” (Nereus Pharmacuticals, Inc., priority 2006, dated 2012).

Tested on: not given
Assay: not given
Settings: not given

Compound | melting point [°C]
CC(C)(C)c1ocnc1/C=c1\[nH]c(=O)/c(=C/c2cccc3ccccc23)[nH]c1=O | 168 to 170
Cc1cccc(/C=c2\[nH]c(=O)/c(=C/c3ncoc3C(C)(C)C)[nH]c2=O)c1 | 151 to 153
CC(C)(C)c1ocnc1/C=c1\[nH]c(=O)/c(=C/c2cccc(Cl)c2)[nH]c1=O | 171 to 173
CC(C)(C)c1ocnc1/C=c1\[nH]c(=O)/c(=C/c2cccc(Cl)c2Cl)[nH]c1=O | 198 to 200
Cc1ccccc1/C=c1\[nH]c(=O)/c(=C/c2ncoc2C(C)(C)C)[nH]c1=O | 177 to 179
CC(C)(C)c1ocnc1/C=c1\[nH]c(=O)/c(=C/c2ccccn2)[nH]c1=O | 230 to 232
CC(C)(C)c1ocnc1/C=c1\[nH]c(=O)/c(=C/c2cccc([N+](=O)[O-])c2)[nH]c1=O | 225 to 227
CC(C)(C)c1ocnc1/C=c1\[nH]c(=O)/c(=C/c2ccc(Cl)o2)[nH]c1=O | 214 to 216
C=Cc1cccc(/C=c2\[nH]c(=O)/c(=C/c3ncoc3C(C)(C)C)[nH]c2=O)c1 | 150 to 152
CC(C)(C)c1ocnc1/C=c1\[nH]c(=O)/c(=C/c2ccc(Br)o2)[nH]c1=O | 184 to 186
CC(C)(C)c1ocnc1/C=c1\[nH]c(=O)/c(=C/c2cccs2)[nH]c1=O | 211 to 213
Cc1cccc(/C=c2\[nH]c(=O)/c(=C/c3ncoc3C(C)(C)C)[nH]c2=O)c1C | 167 to 169
CC(C)(C)c1ocnc1/C=c1\[nH]c(=O)/c(=C/c2cccc(C(F)(F)F)c2)[nH]c1=O | 243 to 245
CC(C)(C)c1ocnc1/C=c1\[nH]c(=O)/c(=C/c2ccnc3ccccc23)[nH]c1=O | 106 to 108
CC(C)(C)c1ocnc1/C=c1\[nH]c(=O)/c(=C/c2cccc(Oc3ccccc3)c2)[nH]c1=O | 171 to 173
Cc1oc(-c2ccccc2)cc1/C=c1\[nH]c(=O)/c(=C/c2ncoc2C(C)(C)C)[nH]c1=O | 218 to 220
CC(C)(C)c1ocnc1/C=c1\[nH]c(=O)/c(=C/c2cc3ccccc3n2S(=O)(=O)c2ccccc2)[nH]c1=O | 145 to 147
CC(C)(C)c1ocnc1/C=c1\[nH]c(=O)/c(=C/c2ccc3nsnc3c2)[nH]c1=O | 234 to 236
CC(C)(C)c1ocnc1/C=c1\[nH]c(=O)/c(=C/c2cc3ccccc3s2)[nH]c1=O | 225 to 227
CC(C)(C)c1ocnc1/C=c1\[nH]c(=O)/c(=C/c2cc(F)cc3c2OCOC3)[nH]c1=O | 189 to 191
CC(C)(C)c1ocnc1/C=c1\[nH]c(=O)/c(=C/c2cccc(C(=O)c3ccccc3)c2)[nH]c1=O | 151 to 153
CC(C)(C)c1ocnc1/C=c1\[nH]c(=O)/c(=C/c2cccc(F)c2)[nH]c1=O [KPU-202, 3-{(Z)-1-[5-(tert-Butyl)-1H-4-oxazolyl]methylidene}-6-[(Z)-1-(3-fluorophenyl)methylidene]-2,5-piperazinedione] | 143 to 145
CC(C)(C)c1ocnc1/C=c1\[nH]c(=O)/c(=C/c2ccccc2Cl)[nH]c1=O [KPU-204, 3-{(Z)-1-[5-(tert-Butyl)-1H-4-oxazolyl]methylidene}-6-[(Z)-1-(2-chlorophenyl)methlidene]-2,5-piperazinedione] | 166 to 168
COc1cc(/C=c2\[nH]c(=O)/c(=C/c3ncoc3C(C)(C)C)[nH]c2=O)cc(OC)c1 [KPU-208, 3-{(Z)-1-[5-(tert-Butyl)-1H-4-oxazolyl]methylidene}-6-[(Z)-1-(3,5-dimethoxyphenyl)methlidene]-2,5-piperazinedione] | 171 to 173
CC(C)(C)c1ocnc1/C=c1\[nH]c(=O)/c(=C/c2cc(Cl)cc(Cl)c2)[nH]c1=O [KPU-209, 3-{(Z)-1-[5-(tert-Butyl)-1H-4-oxazolyl]methylidene}-6-[(Z)-1-(3,5-dichlorophenyl)methlidene]-2,5-piperazinedione] | 202 to 204
CCOc1cccc(/C=c2\[nH]c(=O)/c(=C/c3ncoc3C(C)(C)C)[nH]c2=O)c1 [KPU-210, 3-{(Z)-1-[5-(tert-Butyl)-1H-4-oxazolyl]methylidene}-6-[(Z)-1-(3-ethoxyphenyl)methlidene]-2,5-piperazinedione] | 124 to 126

Tested on: HT-29 human colorectal carcinoma cells
Assay: Cell growth inhibition assay, resazurin (Table 3.2)
Format: cell-based
Settings: HT-29, read-out: EC50 (M) Mean
Method: The cytotoxic effects of various derivatives of dehydrophenylahistin against HT-29 human colorectal carcinoma cells were determined.
HT-29 cells (ATCC; HTB-38) were maintained in ATCC recommended culture media and cultured in an incubator at 37° C. in 5% CO2 and 95% humidified air.
For cell growth inhibition assays, HT-29 cells were seeded at 5×10^3 cells/well in 90 μl complete media into a Corning 3904 black-walled, clear-bottom tissue culture plates and the plates were incubated overnight to allow cells to establish and enter log phase growth. 20 mM stock solutions of compounds were prepared in 100% DMSO and stored at −80° C. 10× concentrated serial dilutions of the compounds were prepared in culture medium for final concentrations ranging from 20 μM to […]. Ten μl volumes of the 10× serial dilutions were added to the test wells in triplicate and the plates returned to the incubator for 48 hours. The final concentration of DMSO was 0.25% in all samples.
Following 48 hours of drug exposure, 10 μl of 0.2 mg/ml resazurin (obtained from Sigma-Aldrich Chemical Co.) in Mg^2+, Ca^2+ free phosphate buffered saline was added to each well and the plates were returned to the incubator for 3-4 hours. […] Resazurin dye in medium without cells was used to determine the background, which was subtracted from the data for all experimental wells.

Compound | EC50 [M]
CC(C)(C)c1ocnc1/C=c1\[nH]c(=O)/c(=C/c2cccc([N+](=O)[O-])c2)[nH]c1=O [Compound 2479, tBu-Oxadelta-PLH-m-NO2] | 1.08e-07
CC(C)(C)c1ocnc1/C=c1\[nH]c(=O)/c(=C/c2ccc(Cl)o2)[nH]c1=O [Compound 2481, tBu-Oxadelta-PLH-5-Cl-2-furyl] | 2.56e-07
C=Cc1cccc(/C=c2\[nH]c(=O)/c(=C/c3ncoc3C(C)(C)C)[nH]c2=O)c1 [Compound 2482, tBu-Oxadelta-PLH-m-vinyl] | 2.65e-08
CC(C)(C)c1ocnc1/C=c1\[nH]c(=O)/c(=C/c2ccc(Br)o2)[nH]c1=O [Compound 2483, tBu-Oxadelta-PLH-5-Br-2-furyl] | 2.48e-07
CC(C)(C)c1ocnc1/C=c1\[nH]c(=O)/c(=C/c2cccs2)[nH]c1=O [Compound 2484, tBu-Oxadelta-PLH-2-thienyl] | 1.05e-07
Cc1cccc(/C=c2\[nH]c(=O)/c(=C/c3ncoc3C(C)(C)C)[nH]c2=O)c1C [Compound 2486, tBu-Oxadelta-PLH-2,3-diMe] | 1.43e-07
CC(C)(C)c1ocnc1/C=c1\[nH]c(=O)/c(=C/c2cccc(C(F)(F)F)c2)[nH]c1=O [Compound 2488, tBu-Oxadelta-PLH-m-CF3] | 2.49e-07
CC(C)(C)c1ocnc1/C=c1\[nH]c(=O)/c(=C/c2ccnc3ccccc23)[nH]c1=O [Compound 2500, tBu-oxadelta-PLH-4-quinoline] | 3.99e-07
CC(C)(C)c1ocnc1/C=c1\[nH]c(=O)/c(=C/c2cccc(Oc3ccccc3)c2)[nH]c1=O [Compound 2501, tBu-oxadelta-PLH-3-phenoxy] | 2.39e-08
Cc1oc(-c2ccccc2)cc1/C=c1\[nH]c(=O)/c(=C/c2ncoc2C(C)(C)C)[nH]c1=O [Compound 2505, tBu-oxadelta-PLH-2-Me-5-Ph-3-furyl] | > 6.32e-06
CC(C)(C)c1ocnc1/C=c1\[nH]c(=O)/c(=C/c2cc3ccccc3n2S(=O)(=O)c2ccccc2)[nH]c1=O [Compound 2508, tBu-oxadelta-PLH-1-(Ph-sulfo)-2-indole] | > 6.32e-06
CC(C)(C)c1ocnc1/C=c1\[nH]c(=O)/c(=C/c2ccc3nsnc3c2)[nH]c1=O [Compound 2509, tBu-oxadelta-PLH-2,1,3-benzothiadiazole] | 4.04e-07
CC(C)(C)c1ocnc1/C=c1\[nH]c(=O)/c(=C/c2cc3ccccc3s2)[nH]c1=O [Compound 2510, tBu-oxadelta-PLH-2-benzothiophen] | > 2e-05
CC(C)(C)c1ocnc1/C=c1\[nH]c(=O)/c(=C/c2cc(F)cc3c2OCOC3)[nH]c1=O [Compound 2511, tBu-oxadelta-PLH-7-fluoro-2,4-benzodioxine] | 2.39e-08
CC(C)(C)c1ocnc1/C=c1\[nH]c(=O)/c(=C/c2cccc(C(=O)c3ccccc3)c2)[nH]c1=O [Compound 2512, tBu-oxadelta-PLH-3-benzoyl] | 3.86e-09

Same assay, conditions: Table 3.2, HT-29 cells, read-out: EC50 (M) Mean

EC50 [M] | Compound
5.37e-08 | CC(C)(C)c1ocnc1/C=c1\[nH]c(=O)/c(=C/c2ccoc2)[nH]c1=O [Compound 2478, tBu-Oxadelta-PLH-3-furanyl]
1.61e-07 | Cc1ccsc1/C=c1\[nH]c(=O)/c(=C/c2ncoc2C(C)(C)C)[nH]c1=O [Compound 2480, tBu-Oxadelta-PLH-3-Me-2-thienyl]
2.18e-07 | COc1ccccc1/C=c1\[nH]c(=O)/c(=C/c2ncoc2C(C)(C)C)[nH]c1=O [Compound 2485, tBu-Oxadelta-PLH-2-OMe]
7.93e-08 | CC(C)(C)c1ocnc1/C=c1\[nH]c(=O)/c(=C/c2ccsc2)[nH]c1=O [Compound 2487, tBu-Oxadelta-PLH-3-thienyl]
1.16e-07 | CC(C)(C)c1ocnc1/C=c1\[nH]c(=O)/c(=C\c2ccccc2)[nH]c1=O [Compound 2489, (E)-tBu-delta-PLH]
9.48e-07 | CC(C)(C)c1ocnc1/C=c1\[nH]c(=O)/c(=C/CCc2ccccc2)[nH]c1=O [Compound 2496, tBu-oxadelta-PLH-Ph-pr]
5.23e-06 | CCOc1ccc2ccccc2c1/C=c1\[nH]c(=O)/c(=C/c2ncoc2C(C)(C)C)[nH]c1=O [Compound 2497, tBu-oxadelta-PLH-2-OEt-1-naphth]
1.67e-06 | COc1ccc2ccccc2c1/C=c1\[nH]c(=O)/c(=C/c2ncoc2C(C)(C)C)[nH]c1=O [Compound 2498, tBu-oxadelta-PLH-2-OMe-1-naphth]
> 6.32e-06 | CC(C)(C)c1ocnc1/C=c1\[nH]c(=O)/c(=C/c2c3ccccc3cc3ccccc23)[nH]c1=O [Compound 2499, tBu-oxadelta-PLH-9-anth]
1.88e-06 | CC(C)(C)c1ocnc1/C=c1\[nH]c(=O)/c(=C/c2ccc(-c3cccs3)s2)[nH]c1=O [Compound 2502, tBu-oxadelta-PLH-2,2′-bitio]
> 6.32e-06 | CC(C)(C)c1ocnc1/C=c1\[nH]c(=O)/c(=C/c2cn(S(=O)(=O)c3ccccc3)c3ccccc23)[nH]c1=O [Compound 2507, tBu-oxadelta-PLH-1-(Ph-sulfo)-3-indole]
9.24e-07 | CC(C)(C)c1ocnc1/C=C1\NC(=O)[C@H](Cc2ccccc2)NC1=O [Compound 2513, tBu-oxa-PLH]
